From patent US20250287945A1, “COMPOSITIONS FOR FUNGAL CONTROL AND RELATED METHODS” (priority 2021, published 2025)
“And” between values parts separate entries of the source, which are not always exact repeats. Equal entries are not always repeated. “Also recorded” adds a separate entry of the source. Where two headings read alike, the source gives them in different places.

What was measured:
[1] = system: Fusarium conidial suspension; assay: Fusarium viability colorimetric assay (PrestoBlue resazurin); type: cell-based
Description: A Fusarium conidial suspension was prepared from a 7-day culture of Fusarium biomass grown on potato dextrose agar for 7 days, and quantified by hemocytometer, as described in Example 4. Solutions of fenpiclonil (Millipore Sigma, Cat. no. 36532) and of the individual peptides were prepared in 50% (w/v) ethanol in water, and tested using a PrestoBlue™ (resazurin) viability colorimetric assay as described in Example 4.
The Fusarium conidial suspension, peptide or control treatment solution, and potato dextrose broth (Alpha Biosciences, catalogue no. P16-126) were added to each well of a 96-well plate to obtain the desired treatment concentration and 1×10^6 conidia/mL in a final volume of 150 microliters per well. The plates were covered and incubated at 30° C. for 18 hours and 200 rpm. Fifteen microliters of PrestoBlue™ Cell Viability Reagent (Thermofisher Scientific, Cat no. A13262) were added to each well, and the plate was further incubated before measuring fluorescence at 590 nm emission with excitation at 560 nm using a spectrophotometer (BioTek Synergy H1 Microplate Reader, Fischer Scientific, Cat. no. 11-120-533).

[2] = system: Botrytis cinarea (strain CBS 261.71); assay: Botrytis viability colorimetric assay (PrestoBlue resazurin); type: cell-based, Botrytis cinerea; conditions: for viability decrease relative to that obtained with the positive control (fenpiclonil): sentence prints Fusarium in the Botrytis assay
[3] = system: conidia of Fusarium proliferatum; assay: oCelloScope live-cell imaging of fungal growth (SESA algorithm); type: cell-based
[4] = system: Aspergillus fumigatus CBS 120.53; assay: Micro broth dilution assay in 96-well plates; type: cell-based; conditions: 3 days of incubation; 375 micromolar or 187.5 micromolar; preliminary
[5] = system: Aspergillus flavus DSM 1959; assay: Micro broth dilution assay in 96-well plates; type: cell-based; conditions: 3 days of incubation; 375 micromolar or 187.5 micromolar; preliminary
[6] = system: Fusarium oxysporum CBS 130311; assay: Micro broth dilution assay in 96-well plates; type: cell-based; conditions: 3 days of incubation; 375 micromolar or 187.5 micromolar; preliminary
[7] = system: Mucor circinelloides f. janssenii CBS 204.68; assay: Micro broth dilution assay in 96-well plates; type: cell-based; conditions: 3 days of incubation; 375 micromolar or 187.5 micromolar; preliminary
[8] = system: Rhizomucor miehei CBS 147454; assay: Micro broth dilution assay in 96-well plates; type: cell-based; conditions: 3 days of incubation; 375 micromolar or 187.5 micromolar; preliminary
[9] = system: Cryptococcus neoformans DSM 70219; assay: Micro broth dilution assay in 96-well plates; type: cell-based; conditions: 2 days of incubation; 375 micromolar; preliminary
[10] = 375 micromolar, four replicates

Row | Sequence | Percent Inhibition (Fusarium), Experiment 5, Mean [1] | Percent Inhibition (Botrytis), Mean [2, 10] | statistical significance of antifungal activity [3] | SESA value normalized against the untreated control, mean (x) ([3]; 22 hours) | statistical comparison of normalized values with the untreated control [3] | Fusarium cell viability versus untreated / 50% ethanol carrier [1] | Percent Inhibition (Fusarium), Experiment 4, Mean [1] | other results
1 | WHWLQLKPGQPMYWHWLQLKPGQPMY (listed as Saccharomyces cerevisiae) [SEQ ID NO: 2188, Saccharomyces cerevisiae alpha pheromone homodimer with no linker] | 71.82% | 71.82% | statistically significant antifungal activity | 0.330 and 0.351 |  |  |  | Botrytis cell viability versus untreated / 50% ethanol carrier ([2]; 375 micromolar): reducing Botrytis cell viability as well as did the fenpiclonil treatment; viability decrease relative to that obtained with the positive control (fenpiclonil) ([2]; 375 micromolar): roughly about two-thirds of the viability decrease obtained using the positive control
2 | GWHWLQLKPGQPMY (listed as Saccharomyces cerevisiae) [SEQ ID NO: 2187, Saccharomyces cerevisiae alpha pheromone with N-terminal glycine] | 66.96% | 66.96% | statistically significant antifungal activity | 0.519 and 0.367 | significantly lower than the untreated control |  |  | 
3 | WKMGQYHQLPPLW [SEQ ID NO: 2185] | 69.60% | 52.30% |  |  |  | greatly decreased Fusarium cell viability to about the same level as did the positive control | 70.84% | SESA value normalized against the untreated control, mean (x) ([3]; 250 micromolar (nominal, filtered), 22 hours, 30% potato dextrose broth): 0.850; SESA value normalized against the untreated control, mean (x) ([3]; 375 micromolar (nominal, filtered), 22 hours, 30% potato dextrose broth): 0.439; statistical comparison of normalized values with the untreated control ([3]; nominal concentration of 375 micromolar): significantly lower than the untreated control
4 | WHWLQLKPGQPMY (listed as Saccharomyces cerevisiae) [SEQ ID NO: 2184, Saccharomyces cerevisiae alpha pheromone] | 62.01% | 45.14% | statistically significant antifungal activity |  | significantly lower than the untreated control |  | 66.33% | Botrytis cell viability versus untreated / 50% ethanol carrier ([2]; 375 micromolar): decreased Botrytis cell viability; viability decrease relative to that obtained with the positive control (fenpiclonil) ([2]; 375 micromolar): roughly about two-thirds of the viability decrease obtained using the positive control; inhibition of growth / growth pattern [4]: No inhibition of growth; inhibition of growth / growth pattern [5]: No inhibition of growth; inhibition of growth / growth pattern [6]: No inhibition of growth; inhibition of growth / growth pattern [7]: No inhibition of growth; inhibition of growth / growth pattern [8]: No inhibition of growth; growth / growth pattern [9]: reduced growth
5 | WCTWKGQPCW [SEQ ID NO: 2182] | 28.39% |  |  |  |  | decreasing Fusarium cell viability; also recorded: decreased Fusarium cell viability; also recorded: less pronounced | 47.78% | Botrytis cell viability versus untreated / 50% ethanol carrier [2]: decreased Botrytis cell viability; Percent Inhibition (Botrytis), Mean [2]: 8.56%; SESA value normalized against the untreated control, mean (x) [3]: 1.554 and 1.510
6 | WHWLQLKPGQPMYG (listed as Saccharomyces cerevisiae) [SEQ ID NO: 2186, Saccharomyces cerevisiae alpha pheromone with C-terminal glycine] | 66.45% | 47.30% | statistically significant antifungal activity | 1.119 and 0.742 | significantly lower than the untreated control | greatly decreased Fusarium cell viability to about the same level as did the positive control | 64.21% | 
7 | WCGRPGQPC (REGION 1..9: note = Botrytis spp.) [SEQ ID NO: 2183, Botrytis cinerea alpha pheromone] | 42.81% | −22.63% |  | 1.540 and 1.743 |  | decreasing Fusarium cell viability; also recorded: decreased Fusarium cell viability; also recorded: less pronounced | 46.67% | inhibition of growth / growth pattern [4]: No inhibition of growth; inhibition of growth / growth pattern [5]: No inhibition of growth; inhibition of growth / growth pattern [6]: No inhibition of growth; inhibition of growth / growth pattern [7]: No inhibition of growth; inhibition of growth / growth pattern [8]: No inhibition of growth; growth / growth pattern [9]: reduced growth
